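Interpolation was linear, between the two tested concentrations surrounding the appropriate level; five concentrations were tested over 48 hours in 96-well plates. At the GI50, growth is halved.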 Calls of active or inactive are those of the source. Cut-off read from the data, not from the text of the source: active = GI50 up to about 1.1 µM and inactive = higher.
What was measured:
Assay in all cases: growth of human tumour cells (NCI), 48 h
OVCAR-4 = system: OVCAR-4
SR = system: SR
Malme-3M = system: Malme-3M
SF-295 = system: SF-295
HCT-116 = system: HCT-116
HT-29 = system: HT-29
ACHN = system: ACHN
UACC-257 = system: UACC-257
LXFL 529 = system: LXFL 529
DU-145 = system: DU-145
DMS-114 = system: DMS-114
CCRF-CEM = system: CCRF-CEM
NCI-H226 = system: NCI-H226
HOP-18 = system: HOP-18
LOX IMVI = system: LOX IMVI
786-0 = system: 786-0
UACC-62 = system: UACC-62
SK-MEL-5 = system: SK-MEL-5
NCI/ADR-RES = system: NCI/ADR-RES
NCI-H460 = system: NCI-H460
BT-549 = system: BT-549
SN12C = system: SN12C
HL-60 = system: HL-60
MCF7 = system: MCF7
MDA-MB-435 = system: MDA-MB-435
NCI-H23 = system: NCI-H23
OVCAR-3 = system: OVCAR-3
U-251 = system: U-251
MDA-N = system: MDA-N
SNB-78 = system: SNB-78
SK-OV-3 = system: SK-OV-3
A549 = system: A549
SK-MEL-2 = system: SK-MEL-2
MDA-MB-231 = system: MDA-MB-231
RXF 393 = system: RXF 393
HCT-15 = system: HCT-15
HCC 2998 = system: HCC 2998
TK-10 = system: TK-10
NCI-H522 = system: NCI-H522
A498 = system: A498
SF-268 = system: SF-268
MOLT-4 = system: MOLT-4
Hs-578T = system: Hs-578T
OVCAR-5 = system: OVCAR-5
RPMI-8226 = system: RPMI-8226
T47D = system: T47D
HOP-62 = system: HOP-62
UO-31 = system: UO-31
COLO 205 = system: COLO 205
K562 = system: K562
DMS-273 = system: DMS-273
XF498 = system: XF498
SK-MEL-28 = system: SK-MEL-28
M14 = system: M14
IGROV-1 = system: IGROV-1
SW-620 = system: SW-620
EKVX = system: EKVX
KM-20L2 = system: KM-20L2
SNB-19 = system: SNB-19
PC-3 = system: PC-3
KM12 = system: KM12
M19-MEL = system: M19-MEL
HOP-92 = system: HOP-92
SNB-75 = system: SNB-75
OVCAR-8 = system: OVCAR-8

COc1ccc(NC(=O)CSc2nnc(-c3ccc(/N=C\c4ccc(Cl)cc4)cc3)o2)cc1
GI50 (OVCAR-4): 23.5 µM (inactive)
GI50 (SR): 13.3 µM (inactive)
GI50 (Malme-3M): 34 µM (inactive)
GI50 (SF-295): 48.5 µM (inactive)
GI50 (HCT-116): 14.2 µM (inactive)
GI50 (HT-29): 42.8 µM (inactive)
GI50 (ACHN): > 52.4 µM (inactive)
GI50 (UACC-257): 46.5 µM (inactive)
GI50 (LXFL 529): 16.5 µM (inactive)
GI50 (DU-145): 34.5 µM (inactive)
GI50 (DMS-114): 15.2 µM (inactive)
GI50 (CCRF-CEM): 8.22 µM (inactive)
GI50 (NCI-H226): > 44.6 µM (inactive)
GI50 (HOP-18): 12.5 µM (inactive)
GI50 (LOX IMVI): 7.98 µM (inactive)
GI50 (786-0): 37.8 µM (inactive)
GI50 (UACC-62): 28.8 µM (inactive)
GI50 (SK-MEL-5): 27.3 µM (inactive)
GI50 (NCI/ADR-RES): 42.3 µM (inactive)
GI50 (NCI-H460): > 67.3 µM (inactive)
GI50 (BT-549): 17 µM (inactive)
GI50 (SN12C): 16.1 µM (inactive)
GI50 (HL-60): 4.85 µM (inactive)
GI50 (MCF7): 23.2 µM (inactive)
GI50 (MDA-MB-435): 34 µM (inactive)
GI50 (NCI-H23): 36 µM (inactive)
GI50 (OVCAR-3): 21.4 µM (inactive)
GI50 (U-251): 24.8 µM (inactive)
GI50 (MDA-N): 39.6 µM (inactive)
GI50 (SNB-78): 24.9 µM (inactive)
GI50 (SK-OV-3): 51.8 µM (inactive)
GI50 (A549): > 100 µM (inactive)
GI50 (SK-MEL-2): 15 µM (inactive)
GI50 (MDA-MB-231): 34.5 µM (inactive)
GI50 (RXF 393): > 69.7 µM (inactive)
GI50 (HCT-15): 4.78 µM
GI50 (HCC 2998): 52.8 µM (inactive)
GI50 (TK-10): > 100 µM (inactive)
GI50 (NCI-H522): 26.7 µM (inactive)
GI50 (A498): > 100 µM (inactive)
GI50 (SF-268): 13.6 µM (inactive)
GI50 (MOLT-4): 13.9 µM (inactive)
GI50 (Hs-578T): 77.6 µM (inactive)
GI50 (OVCAR-5): > 100 µM (inactive)
GI50 (RPMI-8226): 9.06 µM (inactive)
GI50 (T47D): 21.2 µM (inactive)
GI50 (HOP-62): 24.8 µM (inactive)
GI50 (UO-31): > 54.7 µM (inactive)
GI50 (COLO 205): 20 µM (inactive)
GI50 (K562): 11 µM (inactive)
GI50 (DMS-273): 26.8 µM (inactive)
GI50 (XF498): 17.1 µM (inactive)
GI50 (SK-MEL-28): > 45.1 µM (inactive)
GI50 (M14): 26.5 µM (inactive)
GI50 (IGROV-1): 39.5 µM (inactive)
GI50 (SW-620): 22.1 µM (inactive)
GI50 (EKVX): > 59.2 µM (inactive)
GI50 (KM-20L2): 39.6 µM (inactive)
GI50 (SNB-19): 29.9 µM (inactive)
GI50 (PC-3): 22 µM (inactive)
GI50 (KM12): 29.9 µM (inactive)
GI50 (M19-MEL): 15 µM (inactive)
GI50 (HOP-92): 14.4 µM (inactive)
GI50 (SNB-75): 31.6 µM (inactive)
GI50 (OVCAR-8): 35.9 µM (inactive)

CC(=O)O[C@]12CCCCCC1C1(O)C(O)CCC[C@H]12 (stereo partly drawn)
GI50 (OVCAR-4): > 100 µM (inactive)
GI50 (SR): > 100 µM (inactive)
GI50 (Malme-3M): > 100 µM (inactive)
GI50 (SF-295): > 100 µM (inactive)
GI50 (HCT-116): > 100 µM (inactive)
GI50 (HT-29): > 100 µM (inactive)
GI50 (ACHN): > 100 µM (inactive)
GI50 (UACC-257): > 100 µM (inactive)
GI50 (LXFL 529): > 100 µM (inactive)
GI50 (DMS-114): > 100 µM (inactive)
GI50 (CCRF-CEM): > 100 µM (inactive)
GI50 (NCI-H226): > 100 µM (inactive)
GI50 (HOP-18): > 100 µM (inactive)
GI50 (LOX IMVI): > 100 µM (inactive)
GI50 (786-0): > 100 µM (inactive)
GI50 (UACC-62): > 100 µM (inactive)
GI50 (SK-MEL-5): > 100 µM (inactive)
GI50 (NCI-H460): > 100 µM (inactive)
GI50 (SN12C): > 100 µM (inactive)
GI50 (HL-60): > 100 µM (inactive)
GI50 (NCI-H23): > 100 µM (inactive)
GI50 (U-251): > 100 µM (inactive)
GI50 (SNB-78): > 100 µM (inactive)
GI50 (SK-OV-3): > 100 µM (inactive)
GI50 (A549): > 100 µM (inactive)
GI50 (SK-MEL-2): > 100 µM (inactive)
GI50 (RXF 393): > 100 µM (inactive)
GI50 (HCT-15): > 100 µM
GI50 (TK-10): > 100 µM (inactive)
GI50 (SF-268): > 100 µM (inactive)
GI50 (MOLT-4): > 100 µM (inactive)
GI50 (RPMI-8226): > 100 µM (inactive)
GI50 (HOP-62): > 100 µM (inactive)
GI50 (UO-31): > 100 µM (inactive)
GI50 (COLO 205): > 100 µM (inactive)
GI50 (K562): > 100 µM (inactive)
GI50 (DMS-273): > 100 µM (inactive)
GI50 (XF498): > 100 µM (inactive)
GI50 (SK-MEL-28): > 100 µM (inactive)
GI50 (M14): > 100 µM (inactive)
GI50 (SW-620): > 100 µM (inactive)
GI50 (EKVX): > 100 µM (inactive)
GI50 (KM-20L2): > 100 µM (inactive)
GI50 (SNB-19): > 100 µM (inactive)
GI50 (KM12): > 100 µM (inactive)
GI50 (M19-MEL): > 100 µM (inactive)
GI50 (SNB-75): > 100 µM (inactive)
GI50 (OVCAR-8): > 100 µM (inactive)

— ChEMBL document CHEMBL1201862, “PubChem BioAssay data set” (2004)
